Data as given in US20230172925A1, “SKIN-CARE COMPOSITIONS AND USES THEREOF” (AHAVA - DEAD SEA LABORATORIES LTD., priority 2019, published 2023).

Legend:
Format in all cases: cell-based
[1] = tested on: IL-1α; assay: Human skin organ culture without UVB stressor, IL-1α secretion; settings: no UVB, SDS 10% applied once
Description: (§1) Topical Exposure Till 96 Hours without External UVB Radiation as Stressor on Human Skin Model
(§2) Day 1: Topical application of 3 μl of each solution on the epidermis of each skin explant. Incubate for 24 hours. (SDS Irritation control: topical application of 3 ul SDS 10% was applied on the skin model at day 1 only. The rest of the days samples were untouched).
(§3) Day 2: Topical application of 3 μl of each solution on the epidermis of each skin explant. Incubate for 24 hours in fresh medium (medium was not collected). (UVB control: after 24 hours incubation with 3 μl H2O skin was irradiated with 200 mJ/cm2 UVB. The rest of the experiment days sample were topically applied with H2O, as control).
(§4) Day 3: Topical application of 3 μl of each solution on the epidermis of each skin explant. Incubate for 24 hours in fresh medium (medium was collected)—48 hours of total topical incubation.
(§5) Day 4: Topical application of 3 μl of each solution on the epidermis of each skin explant. Incubate for 24 hours in fresh medium (medium was collected)—72 hours of total topical incubation.
(§6) Day 5: Topical application of 3 μl of each solution on the epidermis of each skin explant. Incubate for 24 hours in fresh medium (medium was collected)—96 hours of total topical incubation. MTT assay was performed.
FIG. 9A illustrates the IL-1α secretion results in the medium. In FIG. 9A the IL-1α secretion of the H2O sample was used as a control (9.0±0.7 pg/ml […]) for each time point. FIG. 9B is a magnification of FIG. 9A.

[2] = tested on: human skin explants (epidermis); assay: Human skin organ culture with UVB stressor, viability by MTT assay; settings: SDS 10% applied only once, not irradiated, 24 hours of incubation
Description: (§7) Topical exposure till 48 hours in total (24 hr recovery following topical application+24 hr after exposure to UVB irradiation) with UVB radiation as stressor on human skin model
(§8) The following general procedure was used in the study:
(§9) Day 1: Topical application of 3 μl of each sample solution on the epidermis of each skin explant. Incubate for 24 hours. SDS 10% was applied only once, and was not farther irradiated with UVB.
(§10) Day 2: Skin explants were washed once with PBS and irradiated with UVB lamp at 200 mJ/cm2. After radiation it was incubated for 30 min and then topically apply each treatment (sample solution) again. Control was not irradiated under UVB light. UVB radiated control was without any treatment except radiation.
(§11) Day 3: Viability and Caspase3 activity were measured for the epidermis layer. The medium was collected for cytokines test.
FIG. 2 illustrates a flow diagram of topical exposure/treatment till 48 hours, 24 hr recovery following topical application +24 hr after exposure to UVB irradiation) with UVB radiation as stressor on human skin model experiment. In the Experiment the SDS irritation control sample was a skin explant that was topical applied with 3 μl SDS 10% solution at day 1 only.
The viability of the various skin explants was measured by the 5-dimethylthiazol-2-yl]-2,5-diphenyl tetrazolium bromide (MTT) assay.

[3] = tested on: TNFα; assay: Human skin organ culture without UVB stressor, TNFα secretion; settings: no UVB; SDS 10% applied once; after incubation of 48 hours
Description: as §1, §2, §3, §4, §5, §6
FIG. 8 illustrates the TNFα secretion tested results. In FIG. 8 the TNFα secretion of the H2O sample was used as a control (0.35±0.05 pg/ml) for each time point.

[4] = tested on: TNFα; assay: Human skin organ culture with UVB stressor, TNFα secretion in the medium; settings: SDS 10%, one treatment, not irradiated
Description: as §7, §8, §9, §10, §11
FIG. 4 illustrates the TNFα secretion results in the medium as observed with 2 to 4 repetition of the tests. In FIG. 4 the TNFα secretion of the irradiated sample “UVB” was selected as 100% and it equals 53±30 pg/ml.

[5] = tested on: human skin explants (epidermis); assay: Human skin organ culture without UVB stressor, topical exposure till 96 hours, viability by MTT assay; settings: no UVB; SDS 10% applied only once; after 96 hours
Description: as §1, §2, §3, §4, §5
Day 5: Topical application of 3 μl of each solution on the epidermis of each skin explant. Incubate for 24 hours in fresh medium (medium was collected)—96 hours of total topical incubation. MTT assay was performed. […]
The viability of the various skin explants was measured by the MTT assay.

[6] = tested on: IL-1α; assay: Human skin organ culture with UVB stressor, IL-1α secretion in the medium; settings: SDS 10% applied once, incubation of 24 hours
Description: as §7, §8, §9, §10, §11
FIG. 5 illustrates the IL-1α secretion results in the medium as observed with 3 to 4 repetition of the tests. In FIG. 5 the IL-1α secretion of the irradiated sample “UVB” was selected as 100% and it equals 8.1±1.0 pg/ml.

[7] = tested on: MatTek EFT-400 full thickness tissues; assay: DNA microarray gene expression in skin equivalents, complex vs individual ingredients (Example 5); set-up: key to Genes up and downregulation in pathway: + = up-regulated; − = down-regulated; *non-significant down-regulation, thus, regulation is considered as non-affected (NA); settings: for Up-Regulated Genes (number): cut off of two fold change of adjusted Fold Change, 48 hours
Description: MatTek EFT-400 full thickness tissues were used as the model for this study. Upon arrival, the full thickness tissues were placed into 6 wells plates with 2 ml of culture media and incubated overnight at 37±2° C. and 5±1% CO2. After this overnight incubation the culture media was replaced with 5 ml of fresh media and the tissues were treated topically with the test materials prepared in distilled water as follows:
After the application of the test materials the tissues were incubated at 37±2° C. and […] for 48 hours.
At the end of the treatment period, the tissues were rinsed and transferred to a 2 ml centrifuge tube containing 700 μl of lysis buffer and homogenized. After centrifuging at 14,000×g for 10 minutes at 4° C. the supernatant from each tube was transferred to a new 1.5 ml tube and mixed with and equal volume of 64% ethanol. After mixing the solutions was transferred to glass fiber filter cartridges and the cartridges were loaded into a 1.5 ml collection tube centrifuged for 1 minute at 14,000 RPM in a Napco 2002 Microcentrifuge with a DA-6T fixed angle rotor. The flow through was discarded and any remaining mixture was loaded into the filter cartridge and the centrifugation process was repeated until all of the mixture had been processed. The filter was then washed to remove any residual cellular debris from the RNA bound to the glass fibers by subsequently applying 700 μl of wash solution 1 (1 time) and 500 μl of wash solution 2 (2 times) to the filter cartridge and centrifuging at 14,000 RPM for 1 minute to pass each wash through the cartridge. After each wash, the flow through was discarded. After the final wash one final spin was performed without wash solution to remove any residual wash solution in the filter cartridge. The RNA bound to the glass fibers within the cartridge was then eluted by applying 40 μl of TE buffer (10 mM Tris-HCl, 1 mM EDTA, preheated to 70-80° C.) to the cartridge and centrifuging the cartridge in a new collection tube at 14,000 RPM for one minute. The elution process was then repeated a second time using 20 μl of TE buffer.
First Strand cDNA Synthesis: To start the first strand synthesis, 10 μl of total RNA for each sample was added to a 600 μl PCR tube and the total volume of liquid in the tube will be adjusted to 11 μl with DEPC H2O. Next, 1 μl of T7 Oligo(dT) primer was added and the tube was incubated in a water bath at 70±2° C. for 10 minutes to denature the RNA and then placed on ice to allow the primers to anneal to the poly A ends of the mRNA. After cooling 2 μl of 10× first strand buffer, 1 μl of RNAse inhibitor and 4 μl of dNTP mix were added to each tube, and the tube was incubated at 42° C. in a hybridization oven (Labnet Problot). As soon as the tube was heated, 1 μl of Reverse Transcriptase was added and the tubes were returned to 42±2° C. for 2 hours. At the end of the two hours the tubes were briefly centrifuged to collect all of the fluid at the bottom of the tube and then placed on ice.
Two tubes were prepared for the labeling process, one for Cy3 labeling (green) and one for Cy5 labeling (red). To the Cy3 tube 2 μg of aRNA prepared from the untreated/control sample (the actual color assignment for each sample is not important, but for consistency Cy3 is normally used for the untreated sample) and enough DEPC H2O was added to bring the total volume up to 4 μl. To the Cy5 tube 2 μg of aRNA prepared from the sample treated with the test material and enough DEPC H2O was added to bring the total volume up to 4 μl. To both tubes 5 μl of ASAP labeling buffer was added along with 1 μl of the specific dye for the tube (Cy3 or Cy5). The tubes were incubated for 15 minutes at 85±2° C. At the end of the 15 minutes the tubes were placed on ice to cool them and then add 2.5 μl of ASAP stop solution was added to each tube.

[8] = KEGG_NUCLEOTIDE_EXCISION_REPAIR
[9] = KEGG_SIGNALING_PATHWAYS_REGULATING_PLURIPOTENCY_OF_STEM_CELLS
[10] = WIKI_ASSEMBLY_OF_COLLAGEN_FIBRILS_AND_OTHER_MULTIMERIC_STRUCTURES

SMILES: CCCCCCCCCCCCOS(=O)(=O)[O-].[Na+] [SDS]
- IL-1α secretion level, times of the control value ([1]; after 48 hours): 6.5 times of the control value
- IL-1α secretion level, times of the control value ([1]; after 72 hours and 96 hours): 10.6 times of the control value
- viability (MTT) of epidermis [2]: caused epidermis death
- TNFα secretion [3]: below the detection lever
- TNFα secretion [4]: significant reduction
- epidermis viability (MTT), % of the control value [5]: 15%
- IL-1α secretion [6]: dramatically increased

SMILES: NC(=O)c1cccnc1 [Niacinamide]
- z-score ([7]; KEGG_APOPTOSIS): −0.6704
- z-score ([7]; KEGG_BASE_EXCISION_REPAIR): 0.1343
- Genes up and downregulation in pathway ([7]; KEGG_CELL_CYCLE): −
- z-score ([7]; KEGG_CELL_CYCLE): −1.1781
- z-score ([7]; KEGG_CIRCADIAN_RHYTHM_MAMMAL): 0.1529
- z-score ([7]; KEGG_FATTY_ACID_BIOSYNTHESIS): −1.579
- z-score ([7]; KEGG_FATTY_ACID_DEGRADATION): −0.3119
- z-score ([7]; KEGG_GLYCOLYSIS_GLUCONEOGENESIS): 0.7976
- z-score ([7]; KEGG_NF_KAPPA_B_SIGNALING_PATHWAY): −0.7978
- Genes up and downregulation in pathway [7, 8]: −
- z-score [7, 8]: −0.2743
- z-score ([7]; KEGG_OXIDATIVE_PHOSPHORYLATION): 0.1959
- Genes up and downregulation in pathway ([7]; KEGG_P53_SIGNALING_PATHWAY): −
- z-score ([7]; KEGG_P53_SIGNALING_PATHWAY): −0.04133
- z-score ([7]; KEGG_PROTEASOME): −1.4338
- z-score ([7]; KEGG_RETINOL_METABOLISM): 0.7797
- Genes up and downregulation in pathway [7, 9]: −
- z-score [7, 9]: −1.5828
- z-score ([7]; KEGG_SPHINGOLIPID_METABOLISM): −1.4272
- z-score ([7]; KEGG_TH1_AND_TH2_CELL_DIFFERENTIATION): −0.6106
- z-score ([7]; KEGG_TIGHT_JUNCTION): 1.7592
- z-score ([7]; KEGG_TNF_SIGNALING_PATHWAY): −1.6603
- z-score ([7]; KEGG_T_CELL_RECEPTOR_SIGNALING_PATHWAY): −0.515
- z-score ([7]; KEGG_WNT_SIGNALING_PATHWAY): −0.8093
- z-score ([7]; WIKI_ACTIVATION_OF_MATRIX_METALLOPROTEINASES): 1.5758
- Genes up and downregulation in pathway [7, 10]: −
- z-score [7, 10]: −0.4818
- z-score ([7]; WIKI_COLLAGEN_BIOSYNTHESIS_AND_MODIFYING_ENZYMES): 1.0367
- z-score ([7]; WIKI_COLLAGEN_DEGRADATION): 0.7489
- z-score ([7]; WIKI_DEGRADATION_OF_THE_EXTRACELLULAR_MATRIX): 0.02517
- Genes up and downregulation in pathway ([7]; WIKI_ELASTIC_FIBRE_FORMATION): −
- z-score ([7]; WIKI_ELASTIC_FIBRE_FORMATION): −1.0086
- z-score ([7]; WIKI_ELECTRON_TRANSPORT_CHAIN_IN_MITOCHONDRIA): −0.6757
- z-score ([7]; WIKI_EXTRACELLULAR_MATRIX_ORGANIZATION): 0.2738
- Genes up and downregulation in pathway ([7]; WIKI_KERATINIZATION): +
- regulation of WIKI_KERATINIZATION pathway (Z-Score heatmap, in words) ([7]; WIKI_KERATINIZATION): up-regulated
- z-score ([7]; WIKI_KERATINIZATION): 7.5403
- z-score ([7]; WIKI_NRF2_PATHWAY): 2.1898
- z-score ([7]; WIKI_RESPIRATORY_ELECTRON_TRANSPORT_ATP_SYNTHESIS): −0.7571
- z-score ([7]; WIKI_SPHINGOLIPID_METABOLISM): −0.1492
- Up-Regulated Genes (number) ([7]; 19254 genes evaluated): 133
- Up-Regulated Genes (number) ([7]; second column of Table 6): 70
